In patent US11040035B2, “3-oxo-2,6-diphenyl-2,3-dihydropyridazine-4-carboxamides” (BAYER PHARMA AKTIENGESELLSCHAFT, priority 2016, dated 2021):
pIC50: −log10 of the molar value.

Assays:
[1] = molecular target: T1, AHR (Homo sapiens, UniProt P35869); test: In vitro assay 2: agonism in human cell line (transactivation assay); details: for IC50: Assay 2: AHR-luc Hum Agonism IC50 [M], no kynurenic acid, 20 hours, firefly luciferase; for pIC50: read-out: Assay 2: AHR-luc Hum Agonism IC50, no kynurenic acid, 20 hours, firefly luciferase
T1 sequence (P35869 11-848): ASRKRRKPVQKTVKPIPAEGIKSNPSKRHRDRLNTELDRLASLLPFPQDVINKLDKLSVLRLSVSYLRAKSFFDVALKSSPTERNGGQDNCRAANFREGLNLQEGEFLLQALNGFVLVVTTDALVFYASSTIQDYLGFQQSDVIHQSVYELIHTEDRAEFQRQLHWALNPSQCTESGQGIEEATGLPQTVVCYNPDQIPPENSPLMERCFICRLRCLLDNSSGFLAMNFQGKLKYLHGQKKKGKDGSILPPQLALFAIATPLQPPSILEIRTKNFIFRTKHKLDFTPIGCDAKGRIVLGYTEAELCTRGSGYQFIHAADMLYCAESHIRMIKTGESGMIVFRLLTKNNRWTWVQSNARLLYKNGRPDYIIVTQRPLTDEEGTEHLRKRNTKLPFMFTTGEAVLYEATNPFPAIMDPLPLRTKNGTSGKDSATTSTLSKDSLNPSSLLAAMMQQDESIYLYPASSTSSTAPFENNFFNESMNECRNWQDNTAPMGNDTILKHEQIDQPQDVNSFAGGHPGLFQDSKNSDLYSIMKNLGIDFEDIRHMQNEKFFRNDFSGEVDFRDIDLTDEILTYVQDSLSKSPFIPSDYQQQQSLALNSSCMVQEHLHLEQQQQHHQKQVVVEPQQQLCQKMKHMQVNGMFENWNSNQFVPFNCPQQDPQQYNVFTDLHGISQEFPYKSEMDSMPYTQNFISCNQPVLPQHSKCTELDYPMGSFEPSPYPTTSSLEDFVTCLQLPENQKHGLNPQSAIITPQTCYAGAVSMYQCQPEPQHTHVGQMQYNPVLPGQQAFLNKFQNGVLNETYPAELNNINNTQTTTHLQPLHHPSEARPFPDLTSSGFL

[2] = molecular target: T1, AHR; test: In vitro assay 1: antagonism in human cell line (transactivation assay, kynurenic acid prestimulated); details: Assay 1: AHR-luc Hum Antagonism IC50 [M], 150 μM kynurenic acid, 20 hours, firefly luciferase

IC50 [1] [M] | IC50 [2] [M] | pIC50 [1] | Compound
> 2e-05 | 1.29e-07 |  | O=C(NC(CO)C1CCOC1)c1cc(-c2ccc(Cl)c(F)c2)nn(-c2cccc(F)c2)c1=O (stereo not shown) [Example 287, 6-(4-Chloro-3-fluorophenyl)-2-(3-fluorophenyl)-N-[2-hydroxy-1-[-tetrahydrofuran-3-yl]ethyl]-3-oxo-2,3-dihydropyridazine-4-carboxamide]
 | 1.69e-07 | < 4.70 | CC(NC(=O)c1cc(-c2ccc(Cl)cc2)nn(-c2cccc(F)c2)c1=O)C(O)CO (single isomer, unassigned) [Example 347, 6-(4-chlorophenyl)-N-(3,4-dihydroxybutan-2-yl)-2-(3-fluorophenyl)-3-oxo-2,3-dihydropyridazine-4-carboxamide]
> 2e-05 | 5e-07 |  | Cc1cccc(-n2nc(-c3ccc(Cl)cc3)cc(C(=O)NCC(O)C(F)(F)F)c2=O)c1 (single isomer, unassigned) [Example 367, 6-(4-chlorophenyl)-2-(3-methylphenyl)-3-oxo-N-(3,3,3-trifluoro-2-hydroxypropyl)-2,3-dihydropyridazine 4-carboxamide]
> 2e-05 | 9.65e-08 |  | O=C(NCC1(O)CCOCC1)c1cc(-c2ccc(Cl)cc2)nn(-c2cccc(F)c2)c1=O [Example 325, 6-(4-chlorophenyl)-2-(3-fluorophenyl)-N-[(4-hydroxytetrahydro-2H-pyran-4-yl)methyl]-3-oxo-2,3-dihydropyridazine-4-carboxamide]
 | 8.3e-07 | < 4.70 | O=C(NC(CO)C1CCOC1)c1cc(-c2ccc(Cl)c(F)c2)nn(-c2cccc(F)c2)c1=O (single isomer, unassigned) [Example 295, 6-(4-Chloro-3-fluorophenyl)-2-(3-fluorophenyl)-N-[2-hydroxy-1-(tetrahydrofuran-3-yl)ethyl]-3-oxo-2,3-dihydropyridazine-4-carboxamide]
> 2e-05 | 2.4e-08 |  | O=C(N[C@H]1COC[C@H]1O)c1cc(-c2ccc(Cl)cc2)nn(-c2cccc(F)c2)c1=O (single isomer, unassigned) [Example 384, 6-(4-chlorophenyl)-2-(3-fluorophenyl)-N-[cis-4-hydroxytetrahydrofuran-3-yl]-3-oxo-2,3-dihydropyridazine-4-carboxamide]
 | 6.17e-07 | < 4.70 | O=C(NC(CO)C1CCOC1)c1cc(-c2ccc(Cl)c(F)c2)nn(-c2cccc(F)c2)c1=O (single isomer, unassigned) [Example 294, 6-(4-Chloro-3-fluorophenyl)-2-(3-fluorophenyl)-N-[2-hydroxy-1-(tetrahydrofuran-3-yl)ethyl]-3-oxo-2,3-dihydropyridazine-4-carboxamide]
> 2e-05 | 1.8e-07 |  | O=C(NC[C@H](O)C(F)(F)F)c1cc(-c2ccc(CF)cc2)nn(-c2cccc(F)c2)c1=O [Example 397, 6-[4-(fluoromethyl)phenyl]-2-(3-fluorophenyl)-3-oxo-N-[(2S)-3,3,3-trifluoro-2-hydroxypropyl]-2,3-dihydropyridazine-4-carboxamide]

Second part, the molecule before the results:

Compound | IC50 [1] [M] | IC50 [2] [M] | pIC50 [1]
O=C(NC(CO)C1CCCO1)c1cc(-c2ccc(Cl)cc2)nn(-c2cccc(F)c2)c1=O (racemic) [Example 230, 3,6-Anhydro-2-({[6-(4-chlorophenyl)-2-(3-fluorophenyl)-3-oxo-2,3-dihydropyridazin-4-yl]carbonyl}amino)-2,4,5-trideoxy-DL-erythro-hexitol and 1,4-anhydro-5-({[6-(4-chlorophenyl)-2-(3-fluorophenyl)-3-oxo-2,3-dihydropyridazin-4-yl]carbonyl}amino)-2,3,5-trideoxy-DL-threo-hexitol] | > 2e-05 | 1.37e-07 | 
O=C(NCC(O)C(F)(F)F)c1cc(-c2ccc(OC(F)F)cc2)nn(-c2cccc(F)c2)c1=O (single isomer, unassigned) [Example 122, 6-[4-(Difluoromethoxy)phenyl]-2-(3-fluorophenyl)-3-oxo-N-(3,3,3-trifluoro-2-hydroxypropyl)-2,3-dihydropyridazine-4-carboxamide] |  | 1.38e-07 | < 4.70
C[C@H](O)CCNC(=O)c1cc(-c2ccc(Cl)cc2)nn(-c2cccc(F)c2)c1=O [Example 205, (+)-6-(4-Chlorophenyl)-2-(3-fluorophenyl)-N-[(3S)-3-hydroxybutyl]-3-oxo-2,3-dihydropyridazine-4-carboxamide] | > 2e-05 | 2.12e-07 | 
Cc1ccc(-c2cc(C(=O)NCC(C)O)c(=O)n(-c3cccc(F)c3)n2)cc1 (stereo not shown) [Example 13, 2-(3-Fluorophenyl)-N-(2-hydroxypropyl)-6-(4-methylphenyl)-3-oxo-2,3-dihydropyridazine-4-carboxamide] | > 2e-05 | 1.43e-07 | 
Cc1ccc(-c2cc(C(=O)NCC(O)C(F)(F)F)c(=O)n(-c3cccc(F)c3)n2)cc1 (stereo not shown) [Example 4, 2-(3-Fluorophenyl)-6-(4-methylphenyl)-3-oxo-N-(3,3,3-trifluoro-2-hydroxypropyl)-2,3-dihydropyridazine-4-carboxamide] | > 2e-05 | 2.92e-08 | 
O=C(NCC(O)C(F)(F)F)c1cc(-c2ccc(Cl)cc2)nn(-c2ccccc2)c1=O (single isomer, unassigned) [Example 78, 6-(4-chlorophenyl)-3-oxo-2-phenyl-N-(3,3,3-trifluoro-2-hydroxypropyl)-2,3-dihydropyridazine-4-carboxamide] |  | 2.66e-07 | < 4.70
C[C@H](CO)NC(=O)c1cc(-c2ccc(C(F)(F)F)cc2)nn(-c2cccc(F)c2)c1=O [Example 238, 2-(3-Fluorophenyl)-N-[(2R)-1-hydroxypropan-2-yl]-3-oxo-6-[4-(trifluoromethyl)phenyl]-2,3-dihydropryridazine-4-carboxamide] | > 2e-05 | 9.88e-08 | 
CC(C)[C@@H](CO)NC(=O)c1cc(-c2ccc(Cl)cc2)nn(-c2ccccc2)c1=O [Example 75, 6-(4-chlorophenyl)-N-[(2S)-1-hydroxy-3-methylbutan-2-yl]-3-oxo-2-phenyl-2,3-dihydropyridazine-4-carboxamide] | > 2e-05 | 3.45e-08 | 
NC(=O)CC(CO)NC(=O)c1cc(-c2ccc(Cl)cc2)nn(-c2cccc(F)c2)c1=O (stereo not shown) [Example 163, N-(4-Amino-1-hydroxy-4-oxobutan-2-yl)-6-(4-chlorophenyl)-2-(3-fluorophenyl)-3-oxo-2,3-dihydropyridazine-4-carboxamide] | > 2e-05 | 4.98e-07 | 
CC(C)C(O)CNC(=O)c1cc(-c2ccc(Cl)cc2)nn(-c2cc(F)cc(F)c2)c1=O (stereo not shown) [Example 48, 6-(4-Chlorophenyl)-2-(3,5-difluorophenyl)-N-(2-hydroxy-3-methylbutyl)-3-oxo-2,3-dihydropyridazine-4-carboxamide] | > 2e-05 | 4.93e-08 | 
CC(O)C(C)NC(=O)c1cc(-c2ccc(OC(F)(F)F)cc2)nn(-c2cccc(F)c2)c1=O (single isomer, unassigned) [Example 180, 2-(3-Fluorophenyl)-N-(3-hydroxybutan-2-yl)-3-oxo-6-[4-(trifluoromethoxy)phenyl]-2,3-dihydropyridazine-4-carboxamide] | > 2e-05 | 1.24e-07 | 
CC(O)CNC(=O)c1cc(-c2ccc(Cl)cc2)nn(-c2cccc(F)c2)c1=O (stereo not shown) [Example 34, 6-(4-Chlorophenyl)-2-(3-fluorophenyl)-N-(2-hydroxypropyl)-3-oxo-2,3-dihydropyridazine-4-carboxamide] | > 2e-05 | 1.88e-07 | 
Cc1ccc(-c2cc(C(=O)NCC(O)C(C)C)c(=O)n(-c3cccc(F)c3)n2)cc1 (single isomer, unassigned; enantiomer 2) [Example 12, 2-(3-Fluorophenyl)-N-(2-hydroxy-3-methylbutyl)-6-(4-methylphenyl)-3-oxo-2,3-dihydropyridazine-4-carboxamide, enantiomer 2] |  | 1.22e-07 | < 4.70
CC(O)C(C)NC(=O)c1cc(-c2ccc(OC(F)F)cc2)nn(-c2cccc(F)c2)c1=O (single isomer, unassigned) [Example 141, 6-[4-(Difluoromethoxy)phenyl]-2-(3-fluorophenyl)-N-(3-hydroxybutan-2-yl)-3-oxo-2,3-dihydropyridazine-4-carboxamide] | > 2e-05 | 7.81e-08 | 
O=C(NCC(O)C(F)(F)F)c1cc(-c2ccc(Cl)cc2)nn(-c2cccc(Cl)c2)c1=O (single isomer, unassigned) [Example 63, 2-(3-Chlorophenyl)-6-(4-chlorophenyl)-3-oxo-N-(3,3,3-trifluoro-2-hydroxypropyl)-2,3-dihydropyridazine-4-carboxamide] | > 2e-05 | 8.99e-08 | 
